The record followed here is US20100029507A1, “THE BIOCHIP FOR THE DETECTION OF PHOSPHORYLATION AND THE DETECTION METHOD USING THE SAME” (priority 2006, published 2010).

Residues, ends and D or L forms follow the SMILES beside them.

The assay has as its target cAMP-dependent protein kinase (Homo sapiens, UniProt P17612). Nature of the assay: phosphorylation of chip-fixed substrate by kinase with [γ-32P]ATP, X-ray film detection. The settings on record: substrate spotted on aldehyde coated slide glass, 10 units cAMP-dependent protein kinase, reaction one hour, sensitized 12~24 hours. The assay is classed as biochemical. On the procedure:
First, kemptide (Promega, Madison, Wis.) or malic enzyme-kemptide fusion protein was fixed on a slid glass as a substrate. Particularly, kemptide was dissolved in kemptide solution (10% glycerol, 60% PBS, pH 7.5) at the concentration of 0.1 mg/ml and this substrate solution was integrated on the aldehyde coated slid glass by using a microarrayer [Affymetrix 417 Arrayer (Takara Shuzo, Japan)] with leaving 300 μm distance between spots (2500/1 cm^2). The malic enzyme-kemptide prepared in Example 1 was also integrated on the slid glass with leaving 300 μm distance between spots (2500/1 cm^2). At this time, the size of each spot was 50 μm. The biochip integrated with substrate as described above was fixed in a 30° C. humid chamber for one hour. The biochip prepared in Example 2 was washed three times with washing buffer (2 mM KH2PO4, 1 mM Na2HPO4, 200 mM NaCl, 3 mM KCl, pH 7.5) and then reaction between the substrate and kinase was induced on the chip. Particularly, the chip was washed with kinase buffer (50 mM Tris-HCl, 10 mM MgCl2, pH 7.5) once and then pre-incubation was performed in the kinase buffer supplemented with 100 μM of ATP. […] The reacted biochip was sensitized on X-ray film for 12˜24 hours and then phosphorylation by kinase was measured.

For `CC(C)C[C@H](NC(=O)[C@H](CO)NC(=O)[C@H](C)NC(=O)[C@H](CCCNC(=N)N)NC(=O)[C@H](CCCNC(=N)N)NC(=O)[C@@H](N)CC(C)C)C(=O)NCC(=O)O` [kemptide] (H-LRRASLG-OH), the “phosphorylation by kinase (spot signal on X-ray film)” value is “spot signals were clearly confirmed”.
